{"source": "paper PMC8426393", "about": "“Interactions of anti-COVID-19 drug candidates with hepatic transporters may cause liver toxicity and affect pharmacokinetics” (Scientific Reports, 2021)", "key": {"[1]": {"test_system": "ABCB1/Pgp", "parameters": "method as in Telbisz et al., 2021", "conditions": "vesicular transporter assay, measured previously; ref Telbisz et al., 2021; cited from earlier work"}, "[2]": {"molecular_target": "T1, ABCC2/MRP2 (Homo sapiens, UniProt Q92887)", "T1 construct": "made in house; host or cells: Sf9 insect cells (baculovirus)", "T1 sequence (Q92887 whole entry)": "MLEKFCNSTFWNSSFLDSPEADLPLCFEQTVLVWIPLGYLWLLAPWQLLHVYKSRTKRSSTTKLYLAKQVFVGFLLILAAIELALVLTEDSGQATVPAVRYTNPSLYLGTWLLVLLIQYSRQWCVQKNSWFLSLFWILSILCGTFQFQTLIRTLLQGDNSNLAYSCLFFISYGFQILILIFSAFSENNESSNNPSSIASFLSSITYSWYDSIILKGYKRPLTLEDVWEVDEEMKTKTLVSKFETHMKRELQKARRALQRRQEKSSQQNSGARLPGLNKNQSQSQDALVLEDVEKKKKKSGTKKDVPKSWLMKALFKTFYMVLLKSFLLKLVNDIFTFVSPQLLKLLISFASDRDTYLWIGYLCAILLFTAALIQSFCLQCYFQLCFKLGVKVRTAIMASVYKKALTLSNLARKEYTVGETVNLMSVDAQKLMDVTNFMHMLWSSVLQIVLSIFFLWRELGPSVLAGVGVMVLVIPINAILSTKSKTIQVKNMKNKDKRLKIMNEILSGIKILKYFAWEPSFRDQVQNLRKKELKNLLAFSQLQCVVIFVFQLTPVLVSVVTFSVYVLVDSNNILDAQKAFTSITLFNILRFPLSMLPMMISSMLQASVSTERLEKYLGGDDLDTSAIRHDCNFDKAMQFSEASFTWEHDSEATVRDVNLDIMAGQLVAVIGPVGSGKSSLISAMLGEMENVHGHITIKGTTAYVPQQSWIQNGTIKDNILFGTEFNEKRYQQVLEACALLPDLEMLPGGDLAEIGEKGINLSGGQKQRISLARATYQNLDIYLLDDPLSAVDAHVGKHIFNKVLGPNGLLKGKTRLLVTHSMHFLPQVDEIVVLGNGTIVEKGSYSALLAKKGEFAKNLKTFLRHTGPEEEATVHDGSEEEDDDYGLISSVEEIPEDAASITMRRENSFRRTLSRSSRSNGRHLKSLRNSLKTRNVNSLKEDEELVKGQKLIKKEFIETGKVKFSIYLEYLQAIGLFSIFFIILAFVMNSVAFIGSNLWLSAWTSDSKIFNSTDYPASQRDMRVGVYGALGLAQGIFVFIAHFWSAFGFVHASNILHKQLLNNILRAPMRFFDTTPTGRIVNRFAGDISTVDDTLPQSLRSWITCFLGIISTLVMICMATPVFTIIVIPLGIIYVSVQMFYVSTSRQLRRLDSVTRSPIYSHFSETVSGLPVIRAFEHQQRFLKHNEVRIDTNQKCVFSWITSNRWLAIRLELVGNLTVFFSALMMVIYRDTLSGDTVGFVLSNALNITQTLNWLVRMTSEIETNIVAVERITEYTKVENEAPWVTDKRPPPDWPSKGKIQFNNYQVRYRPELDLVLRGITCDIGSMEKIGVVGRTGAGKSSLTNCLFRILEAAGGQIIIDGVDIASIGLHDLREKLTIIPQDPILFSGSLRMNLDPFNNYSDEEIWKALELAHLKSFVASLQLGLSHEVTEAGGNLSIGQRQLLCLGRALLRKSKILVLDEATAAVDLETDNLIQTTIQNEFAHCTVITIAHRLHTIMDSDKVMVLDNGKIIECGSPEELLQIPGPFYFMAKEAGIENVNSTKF", "test": "MRP2 vesicular transport: ATP-dependent CDCF uptake into inverted Sf9 membrane vesicles", "type": "biochemical", "conditions": "CDCF 5 µM, 37 °C, 10 min, Sf9 vesicles"}, "[3]": {"molecular_target": "T2, OCT1/SLC22A1 (Homo sapiens, UniProt O15245)", "T2 construct": "expressed in transfected cells; host or cells: HEK-293 cells, lentiviral transduction", "T2 sequence (O15245 1-554)": "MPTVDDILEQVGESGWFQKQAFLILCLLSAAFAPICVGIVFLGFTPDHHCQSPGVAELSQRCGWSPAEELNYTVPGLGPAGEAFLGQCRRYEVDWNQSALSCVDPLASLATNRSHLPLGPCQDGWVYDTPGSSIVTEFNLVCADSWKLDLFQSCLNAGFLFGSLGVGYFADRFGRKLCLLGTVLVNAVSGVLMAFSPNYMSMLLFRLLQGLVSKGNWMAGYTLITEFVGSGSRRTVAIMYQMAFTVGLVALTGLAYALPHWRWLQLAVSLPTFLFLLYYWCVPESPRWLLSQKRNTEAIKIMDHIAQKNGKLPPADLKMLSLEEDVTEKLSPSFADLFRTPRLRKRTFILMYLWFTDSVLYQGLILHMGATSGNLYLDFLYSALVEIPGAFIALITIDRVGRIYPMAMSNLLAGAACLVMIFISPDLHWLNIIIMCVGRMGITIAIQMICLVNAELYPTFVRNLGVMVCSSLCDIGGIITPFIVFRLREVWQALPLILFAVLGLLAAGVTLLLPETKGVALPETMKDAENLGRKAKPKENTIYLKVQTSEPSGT", "test": "OCT1-dependent metformin uptake in OCT1-overexpressing HEK-293 cells", "type": "cell-based"}, "[4]": {"conditions": "Kaletra 400 mg lopinavir and 100 mg ritonavir in combination; cited from earlier work"}, "[5]": {"molecular_target": "T3, ABCC3/MRP3 (Homo sapiens, UniProt O15438)", "T3 construct": "purchased Solvo Biotechnology (Budapest, Hungary); host or cells: HEK-293 cells", "T3 sequence (O15438 whole entry)": "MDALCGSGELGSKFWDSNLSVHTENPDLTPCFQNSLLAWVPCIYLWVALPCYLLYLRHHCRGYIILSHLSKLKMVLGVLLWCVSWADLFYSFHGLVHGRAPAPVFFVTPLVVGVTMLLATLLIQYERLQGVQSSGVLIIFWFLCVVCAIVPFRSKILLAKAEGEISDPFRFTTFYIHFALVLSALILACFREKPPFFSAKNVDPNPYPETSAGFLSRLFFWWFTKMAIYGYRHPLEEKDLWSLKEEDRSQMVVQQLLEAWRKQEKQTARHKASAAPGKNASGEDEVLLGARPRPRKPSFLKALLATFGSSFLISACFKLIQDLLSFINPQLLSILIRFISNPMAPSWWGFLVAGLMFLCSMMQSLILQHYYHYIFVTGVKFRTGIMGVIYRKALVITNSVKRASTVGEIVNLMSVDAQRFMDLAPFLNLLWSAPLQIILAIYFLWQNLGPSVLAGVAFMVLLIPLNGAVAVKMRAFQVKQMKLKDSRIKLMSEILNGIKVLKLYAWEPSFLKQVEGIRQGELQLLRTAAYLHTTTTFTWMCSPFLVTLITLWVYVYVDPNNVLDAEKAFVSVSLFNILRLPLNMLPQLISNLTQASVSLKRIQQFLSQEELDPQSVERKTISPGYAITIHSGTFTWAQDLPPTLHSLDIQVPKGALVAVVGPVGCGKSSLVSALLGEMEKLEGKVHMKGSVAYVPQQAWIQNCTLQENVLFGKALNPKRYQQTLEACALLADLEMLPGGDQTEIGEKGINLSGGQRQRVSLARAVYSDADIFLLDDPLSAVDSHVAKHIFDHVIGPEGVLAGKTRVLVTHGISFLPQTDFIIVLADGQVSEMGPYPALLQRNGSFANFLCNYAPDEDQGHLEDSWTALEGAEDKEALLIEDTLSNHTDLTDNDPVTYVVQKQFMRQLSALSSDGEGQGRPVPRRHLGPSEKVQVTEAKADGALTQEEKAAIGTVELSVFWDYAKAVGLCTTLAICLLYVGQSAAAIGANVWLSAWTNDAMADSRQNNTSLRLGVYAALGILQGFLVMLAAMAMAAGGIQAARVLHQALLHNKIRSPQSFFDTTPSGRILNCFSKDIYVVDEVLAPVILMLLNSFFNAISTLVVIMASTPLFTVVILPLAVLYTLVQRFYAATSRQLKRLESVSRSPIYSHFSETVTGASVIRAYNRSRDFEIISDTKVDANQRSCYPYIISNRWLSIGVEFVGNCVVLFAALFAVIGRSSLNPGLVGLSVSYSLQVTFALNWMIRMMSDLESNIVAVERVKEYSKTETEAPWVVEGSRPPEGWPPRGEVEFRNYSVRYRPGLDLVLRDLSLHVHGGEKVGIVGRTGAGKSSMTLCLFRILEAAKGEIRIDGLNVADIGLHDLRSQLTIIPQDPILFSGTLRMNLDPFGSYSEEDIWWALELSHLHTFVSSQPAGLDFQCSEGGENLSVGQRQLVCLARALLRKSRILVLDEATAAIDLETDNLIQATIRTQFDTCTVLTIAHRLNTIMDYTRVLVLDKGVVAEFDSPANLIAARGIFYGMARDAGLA", "test": "MRP3 vesicular transport: ATP- and benzbromarone-sensitive CDCF uptake into inverted HEK-293 membrane vesicles", "type": "biochemical"}, "[6]": {"molecular_target": "T4, MATE1/SLC47A1 (Homo sapiens, UniProt Q96FL8)", "T4 construct": "expressed in transfected cells; host or cells: MDCKII cells, lentiviral transduction", "T4 sequence (Q96FL8 1-570)": "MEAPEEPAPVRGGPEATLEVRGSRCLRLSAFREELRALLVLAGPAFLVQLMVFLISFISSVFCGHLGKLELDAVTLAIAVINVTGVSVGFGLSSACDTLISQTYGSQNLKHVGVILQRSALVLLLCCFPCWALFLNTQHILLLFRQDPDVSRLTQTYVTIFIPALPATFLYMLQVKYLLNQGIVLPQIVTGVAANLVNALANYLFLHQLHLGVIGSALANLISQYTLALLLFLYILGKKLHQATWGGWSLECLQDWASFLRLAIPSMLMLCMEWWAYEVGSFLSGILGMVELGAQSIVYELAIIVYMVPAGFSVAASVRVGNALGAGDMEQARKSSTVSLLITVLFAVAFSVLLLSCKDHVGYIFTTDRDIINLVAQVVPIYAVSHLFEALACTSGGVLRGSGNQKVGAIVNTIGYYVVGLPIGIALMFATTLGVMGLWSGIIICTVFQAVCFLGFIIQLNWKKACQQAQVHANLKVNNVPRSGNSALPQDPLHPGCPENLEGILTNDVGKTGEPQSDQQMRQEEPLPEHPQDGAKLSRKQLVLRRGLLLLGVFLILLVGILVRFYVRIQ", "test": "MATE1-dependent metformin uptake in MATE1-overexpressing MDCKII cells", "type": "cell-based", "conditions": "metformin 10 µM, 10 min, 37 °C, MDCKII cells"}, "[7]": {"molecular_target": "T5, ABCB11/BSEP (Homo sapiens, UniProt O95342)", "T5 construct": "purchased Solvo Biotechnology (Budapest, Hungary); host or cells: HEK-293 cells", "T5 sequence (O95342 whole entry)": "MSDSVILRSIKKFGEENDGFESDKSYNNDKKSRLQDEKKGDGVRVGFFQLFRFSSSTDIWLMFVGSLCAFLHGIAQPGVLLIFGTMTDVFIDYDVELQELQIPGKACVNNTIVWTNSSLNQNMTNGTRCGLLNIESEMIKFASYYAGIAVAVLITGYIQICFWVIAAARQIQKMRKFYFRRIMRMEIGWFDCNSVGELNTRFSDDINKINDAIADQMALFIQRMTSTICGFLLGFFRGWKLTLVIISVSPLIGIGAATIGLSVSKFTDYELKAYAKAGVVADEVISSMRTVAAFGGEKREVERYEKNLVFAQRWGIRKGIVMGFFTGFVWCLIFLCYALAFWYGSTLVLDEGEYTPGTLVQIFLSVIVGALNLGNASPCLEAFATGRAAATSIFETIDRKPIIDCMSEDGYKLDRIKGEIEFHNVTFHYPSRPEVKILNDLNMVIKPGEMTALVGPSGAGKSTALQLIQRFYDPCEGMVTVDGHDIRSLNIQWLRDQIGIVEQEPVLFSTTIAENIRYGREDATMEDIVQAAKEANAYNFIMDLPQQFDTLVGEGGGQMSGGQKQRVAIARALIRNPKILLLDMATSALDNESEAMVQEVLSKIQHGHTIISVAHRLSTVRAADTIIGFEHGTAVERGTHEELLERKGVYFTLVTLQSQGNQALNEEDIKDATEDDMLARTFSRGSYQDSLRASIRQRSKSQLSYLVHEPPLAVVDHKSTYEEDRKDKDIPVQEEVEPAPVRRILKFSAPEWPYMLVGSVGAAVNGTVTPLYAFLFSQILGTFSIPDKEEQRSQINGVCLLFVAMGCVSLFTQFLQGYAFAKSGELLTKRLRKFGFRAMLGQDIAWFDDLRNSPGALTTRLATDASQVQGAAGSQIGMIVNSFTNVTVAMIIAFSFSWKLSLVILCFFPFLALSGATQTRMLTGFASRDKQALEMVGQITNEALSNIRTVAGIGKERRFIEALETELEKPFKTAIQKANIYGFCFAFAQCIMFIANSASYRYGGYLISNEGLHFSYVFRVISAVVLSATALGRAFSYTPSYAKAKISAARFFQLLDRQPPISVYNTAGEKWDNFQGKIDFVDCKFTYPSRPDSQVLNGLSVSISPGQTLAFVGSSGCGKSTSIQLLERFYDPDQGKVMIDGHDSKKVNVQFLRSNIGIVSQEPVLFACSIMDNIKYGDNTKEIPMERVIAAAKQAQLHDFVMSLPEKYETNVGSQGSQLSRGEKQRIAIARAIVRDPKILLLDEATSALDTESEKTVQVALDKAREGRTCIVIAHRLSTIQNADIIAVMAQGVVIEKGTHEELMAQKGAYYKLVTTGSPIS", "test": "BSEP vesicular transport: ATP- and glyburide-sensitive taurocholate uptake into inverted HEK-293 membrane vesicles", "type": "biochemical", "conditions": "taurocholate 2 µM, 37 °C, 10 min, HEK-293 vesicles"}, "[8]": {"molecular_target": "T6, ABCC4/MRP4 (Homo sapiens, UniProt O15439)", "T6 construct": "purchased Solvo Biotechnology (Budapest, Hungary); host or cells: HEK-293 cells", "T6 sequence (O15439 1-1325)": "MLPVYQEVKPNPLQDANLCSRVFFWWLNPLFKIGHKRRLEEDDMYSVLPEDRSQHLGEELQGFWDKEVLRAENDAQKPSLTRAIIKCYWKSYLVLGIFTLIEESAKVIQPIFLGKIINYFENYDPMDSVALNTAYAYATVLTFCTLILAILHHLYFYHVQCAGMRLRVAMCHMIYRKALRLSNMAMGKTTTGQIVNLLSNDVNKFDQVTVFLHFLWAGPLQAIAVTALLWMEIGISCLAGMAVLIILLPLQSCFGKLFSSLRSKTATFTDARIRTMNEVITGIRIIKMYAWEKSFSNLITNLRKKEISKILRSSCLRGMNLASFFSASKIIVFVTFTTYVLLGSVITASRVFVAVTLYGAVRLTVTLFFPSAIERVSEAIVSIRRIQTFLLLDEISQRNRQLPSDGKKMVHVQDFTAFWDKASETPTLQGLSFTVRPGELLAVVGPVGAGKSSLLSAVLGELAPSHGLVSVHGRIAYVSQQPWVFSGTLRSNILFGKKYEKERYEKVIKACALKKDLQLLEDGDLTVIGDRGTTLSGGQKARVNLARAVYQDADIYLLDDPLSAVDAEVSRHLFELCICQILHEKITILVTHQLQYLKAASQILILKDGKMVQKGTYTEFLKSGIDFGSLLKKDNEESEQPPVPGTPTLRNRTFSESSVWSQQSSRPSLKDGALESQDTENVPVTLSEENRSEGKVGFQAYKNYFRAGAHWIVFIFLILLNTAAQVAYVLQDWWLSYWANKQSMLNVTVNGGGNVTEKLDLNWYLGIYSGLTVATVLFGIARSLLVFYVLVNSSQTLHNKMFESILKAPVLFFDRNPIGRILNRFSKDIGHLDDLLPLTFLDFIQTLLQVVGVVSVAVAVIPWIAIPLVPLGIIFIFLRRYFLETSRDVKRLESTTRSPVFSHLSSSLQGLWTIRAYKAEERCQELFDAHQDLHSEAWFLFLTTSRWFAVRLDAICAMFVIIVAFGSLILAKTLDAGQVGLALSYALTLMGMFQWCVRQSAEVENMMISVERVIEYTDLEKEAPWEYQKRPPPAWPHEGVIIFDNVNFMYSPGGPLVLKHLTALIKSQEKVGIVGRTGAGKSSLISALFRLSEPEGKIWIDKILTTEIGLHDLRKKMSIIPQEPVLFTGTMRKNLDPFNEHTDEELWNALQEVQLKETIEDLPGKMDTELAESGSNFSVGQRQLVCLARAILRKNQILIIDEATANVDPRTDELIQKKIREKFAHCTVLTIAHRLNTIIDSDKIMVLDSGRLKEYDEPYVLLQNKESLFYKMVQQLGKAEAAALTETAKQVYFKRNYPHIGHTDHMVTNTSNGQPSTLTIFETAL", "test": "MRP4 vesicular transport: ATP-dependent DHEAS uptake into inverted HEK-293 membrane vesicles", "type": "biochemical", "conditions": "DHEAS 0.5 µM, 32 °C, […], HEK-293 vesicles"}, "[9]": {"test_system": "ABCG2/BCRP", "parameters": "method as in Telbisz et al., 2021", "conditions": "vesicular transporter assay, measured previously; ref Telbisz et al., 2021; cited from earlier work"}}, "note": "“Also recorded” adds a separate entry of the source."}
{"compound": "CC(C)c1nc(CN(C)C(=O)N[C@H](C(=O)N[C@@H](Cc2ccccc2)C[C@H](O)[C@H](Cc2ccccc2)NC(=O)OCc2cncs2)C(C)C)cs1", "note": "[RIT, ritonavir]", "values": [{"measurement": "ABCB1/Pgp Type of effect", "setting": "[1]", "value": "inh"}, {"measurement": "ABCC2/MRP2 Type of effect", "setting": "[2]", "value": "did not inhibit but rather increased the probe substrate transport at high concentrations; also recorded: Increase"}, {"measurement": "OCT1/SLC22A1 Type of effect", "setting": "[3]; metformin 10 µM, 5 min, 37 °C, HEK-293 cells", "value": "strong inhibitory effect and inh"}, {"measurement": "concentration of strong inhibitory effect on OCT1", "setting": "[3]; metformin uptake", "value": "below 10 µM"}, {"measurement": "peak plasma concentrations in vivo", "setting": "[4]", "value": "1 to 1.73", "unit": "µM"}, {"measurement": "ABCC3/MRP3 Type of effect", "setting": "[5]; CDCF 5 µM, 37 °C, 10 min, HEK-293 vesicles", "value": "inh"}, {"measurement": "concentration at which MRP3 transport is inhibited", "setting": "[5]; CDCF uptake", "value": "lower than 10 µM"}, {"measurement": "MATE1/SLC47A1 Type of effect", "setting": "[6]", "value": "strong inhibitory action and inh"}, {"measurement": "ABCB11/BSEP Type of effect", "setting": "[7]", "value": "strongly inhibited TC transport at low concentrations and inh"}, {"measurement": "ABCC4/MRP4 Type of effect", "setting": "[8]", "value": "No effect"}, {"measurement": "ABCG2/BCRP type of effect", "setting": "[9]", "value": "inh"}]}
